# Measurements reported in patent publication US20210032253A1, “PYRAZOLO[1,5-A][1,3,5]TRIAZINE-2-AMINE DERIVATIVE, PREPARATION METHOD THEREFOR AND MEDICAL USE THEREOF” (JIANGSU HENGRUI MEDICINE CO., LTD., priority 2018, published 2021).
# How the values were obtained:
# Format in all cases: cell-based
# [1] = biological target: T1, adenosine A1 receptor (A1R) (Homo sapiens, UniProt P30542); experiment: Inhibition of adenosine A1 receptor cAMP signaling pathway in CHO-K1/A1R cells (HTRF cAMP dynamic 2 kit); conditions: Table 2; for IC50: CHO-K1/A1R cells, cAMP, 10 μM forskolin, 10 nM CPA; for IC50 ratio (A1R/A2aR): selectivity A1R over A2aR
# T1 construct: expressed in transfected cells; host or cells: CHO-K1
# T1 sequence (P30542 1-326): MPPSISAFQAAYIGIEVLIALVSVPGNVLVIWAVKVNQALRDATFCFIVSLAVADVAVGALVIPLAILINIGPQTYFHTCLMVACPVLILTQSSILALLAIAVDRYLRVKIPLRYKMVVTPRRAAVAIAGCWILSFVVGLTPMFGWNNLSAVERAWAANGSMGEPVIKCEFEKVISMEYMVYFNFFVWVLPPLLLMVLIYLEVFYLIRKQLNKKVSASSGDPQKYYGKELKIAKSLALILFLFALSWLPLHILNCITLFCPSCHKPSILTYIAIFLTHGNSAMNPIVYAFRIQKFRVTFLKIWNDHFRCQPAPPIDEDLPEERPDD
# Excerpt: (§1) Test Example 1. Determination of the inhibitory activities of the compounds of the present disclosure on the adenosine A2a receptor (A2aR) cAMP signaling pathway, the adenosine A1 receptor (A1R) cAMP signaling pathway and the adenosine A3 receptor (A3R) cAMP signaling pathway.
# (§2) The inhibitory activities of the compounds of the present disclosure on the adenosine A2a receptor (A2aR) cAMP signaling pathway, the adenosine A1 receptor cAMP signaling pathway and the adenosine A3 receptor cAMP signaling pathway were determined by the following methods. The experimental method is briefly described as follows:
# CHO-K1/A1R cells were cultured in DMEMIF12 medium containing 10% fetal bovine serum and 1 mg/mL G418. The cells were digested with the cell dissociation buffer during the experiment. The cells were then resuspended in the HBSS buffer containing 20 mM HEPES and 0.1% bovine serum albumin and counted, and the cell density was adjusted to 5×10^5 cells/mL. In 384-well plates, each well was added with 12.5 μL of the cell suspension, and 6.25 μL of the test compounds (4× concentration) formulated with the HBSS buffer containing 20 mM HEPES, 0.1% bovine serum albumin, 54 μM rolipram and 2.7 U/mL adenosine deaminase, and the plates were incubated at room temperature for 30 minutes. Each well was then added with 6.25 μL of forskolin and N6-cyclopentyladenosine (4× concentration) formulated with the HBSS buffer containing 20 mM HEPES, 0.1% bovine serum albumin, 54 μM rolipram and 2.7 U/mL adenosine deaminase, and the plates were incubated at room temperature for 30 minutes. The final concentrations of the compounds were: 100000, 10000, 1000, 100, 10, 1, 0.1 and 0 nM. The final concentration of forskolin was 10 μM. The final concentration of CPA was 10 nM. Intracellular cAMP concentration was determined with cAMP dynamic 2 kits. cAMP-d2 and Anti-cAMP—Eu-Cryptate were diluted respectively with the cAMP lysis buffer at a ratio of 1:4. Each well was added with 12.5 μL of the diluted cAMP-d2, followed by addition of 12.5 μL of the diluted Anti-cAMP—Eu-Cryptate, and the plates were incubated at room temperature in the dark for 1 hour. The HTRF signal values were read by the PHERAstar multi-function microplate reader.
# [2] = biological target: T2, adenosine A3 receptor (A3R) (Homo sapiens, UniProt P0DMS8); experiment: Inhibition of adenosine A3 receptor cAMP signaling pathway in CHO-K1/A3R cells (HTRF cAMP dynamic 2 kit); conditions: Table 3; for IC50: CHO-K1/A3R cells, cAMP, 10 μM forskolin, 5 nM 2Cl-IB-MECA; for IC50 ratio (A3R/A2aR): selectivity A3R over A2aR
# T2 construct: expressed in transfected cells; host or cells: CHO-K1
# T2 sequence (P0DMS8 1-318): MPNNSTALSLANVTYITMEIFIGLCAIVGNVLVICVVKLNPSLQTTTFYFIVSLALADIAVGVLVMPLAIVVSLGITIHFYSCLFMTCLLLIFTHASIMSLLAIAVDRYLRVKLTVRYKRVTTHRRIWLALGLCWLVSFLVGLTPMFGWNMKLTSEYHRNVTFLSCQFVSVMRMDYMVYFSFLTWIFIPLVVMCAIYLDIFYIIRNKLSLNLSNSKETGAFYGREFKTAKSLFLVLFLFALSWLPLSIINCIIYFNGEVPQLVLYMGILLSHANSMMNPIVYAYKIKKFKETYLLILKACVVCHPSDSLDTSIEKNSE
# Excerpt: as §1, §2
# CHO-K1/A3R cells were cultured in DMEMIF12 medium containing 10% fetal bovine serum and 10 μg/mL puromycin. The cells were digested with the cell dissociation buffer during the experiment. The cells were resuspended in the HBSS buffer containing 20 mM HEPES and 0.1% bovine serum albumin and counted, and the cell density was adjusted to 5×10^5 cells/mL. In 384-well plates, each well was added with 12.5 μL of the cell suspension, and 6.25 μL of the test compounds (4× concentration) formulated with the HBSS buffer containing 20 mM HEPES, 0.1% bovine serum albumin, 54 μM rolipram and 2.7 U/mL adenosine deaminase, and the plates were incubated at room temperature for 30 minutes. Each well was then added with 6.25 μL of forskolin and 2Cl-IB-MECA (4× concentration) formulated with the HBSS buffer containing 20 mM HEPES, 0.1% bovine serum albumin, […] rolipram and 2.7 U/mL adenosine deaminase, and the plates were incubated at room temperature for 30 minutes. The final concentrations of the compounds were: 100000, 10000, 1000, 100, 10, 1, 0.1 and 0 nM. The final concentration of forskolin was 10 μM. The final concentration of 2Cl-IB-MECA was 5 nM. Intracellular cAMP concentration was determined with cAMP dynamic 2 kits. cAMP-d2 and Anti-cAMP—Eu-Cryptate were diluted respectively with the cAMP lysis buffer at a ratio of 1:4. Each well was added with 12.5 μL of the diluted cAMP-d2, followed by addition of 12.5 μL of the diluted Anti-cAMP—Eu-Cryptate, and the plates were incubated at room temperature in the dark for 1 hour. The HTRF signal values were read by the PHERAstar multi-function microplate reader. IC50 values for the inhibitory activities of the compounds were calculated by Graphpad Prism software, and are shown in Table 3.
# [3] = biological target: T3, adenosine A2a receptor (A2aR) (Homo sapiens, UniProt P29274); experiment: Inhibition of adenosine A2a receptor cAMP signaling pathway in CHO-K1/A2aR cells (HTRF cAMP dynamic 2 kit); conditions: Table 1, 20 nM ethylcarbazole
# T3 construct: expressed in transfected cells; host or cells: CHO-K1
# T3 sequence (P29274 whole entry): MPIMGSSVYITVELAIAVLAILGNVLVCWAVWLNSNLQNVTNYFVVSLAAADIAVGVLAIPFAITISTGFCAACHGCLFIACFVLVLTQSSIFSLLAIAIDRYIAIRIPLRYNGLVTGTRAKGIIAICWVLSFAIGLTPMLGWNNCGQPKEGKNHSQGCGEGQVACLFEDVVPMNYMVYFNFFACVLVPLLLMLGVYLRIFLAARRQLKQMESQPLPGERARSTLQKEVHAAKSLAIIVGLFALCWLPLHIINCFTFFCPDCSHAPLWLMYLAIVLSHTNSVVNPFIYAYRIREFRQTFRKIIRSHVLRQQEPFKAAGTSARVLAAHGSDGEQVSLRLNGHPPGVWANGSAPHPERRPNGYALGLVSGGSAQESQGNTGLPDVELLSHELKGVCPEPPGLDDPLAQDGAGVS
# Excerpt: as §1, §2
# CHO-K1/A2aR cells were cultured in DMEM/F12 medium containing 10% fetal bovine serum and 800 μg/mL Zeocin™. The cells were digested with the cell dissociation buffer during the experiment. The cells were resuspended in the HBSS buffer containing 20 mM HEPES and 0.1% bovine serum albumin and counted, and the cell density was adjusted to 10^6 cells/mL. In 384-well plates, each well was added with 5 μL of the cell suspension, and 2.5 µL of test compounds (4× concentration) formulated with the HBSS buffer containing 20 mM HEPES, 0.1% bovine serum albumin, 54 μM rolipram and 2.7 U/mL adenosine deaminase, and the plates were incubated at room temperature for 30 minutes. Each well was then added with 2.5 μL of ethylcarbazole (4× concentration) formulated with the balanced salt buffer containing 20 mM HEPES, 0.1% bovine serum albumin, 54 μM rolipram and 2.7 U/mL adenosine deaminase, and the plates were incubated at room temperature for 30 minutes. The final concentrations of the compounds were: 10000, 2000, 400, 80, 16, 3.2, 0.64, 0.128, 0.0256, 0.00512, and 0.001024 nM. The final concentration of ethylcarbazole was 20 nM. Intracellular cAMP concentration was determined with cAMP dynamic 2 kits. cAMP-d2 and Anti-cAMP—Eu-Cryptate were diluted respectively with the cAMP lysis buffer at a ratio of 1:4. Each well was added with 5 μL of the diluted cAMP-d2, followed by addition of 5 μL of the diluted Anti-cAMP—Eu-Cryptate, and the plates were incubated at room temperature in the dark for 1 hour. The HTRF signal values were read by the PHERAstar multi-function microplate reader.
Compound,IC50 [1],IC50 ratio (A1R/A2aR) [1],IC50 [2],IC50 ratio (A3R/A2aR) [2],IC50 [3]
"Nc1nc(-c2ccco2)n2ncc(Cc3ccccc3F)c2n1 [Example 10, 8-(2-Fluorobenzyl)-4-(furan-2-yl)pyrazolo[1,5-a][1,3,5]triazin-2-amine]",147 nM,86^,358 nM,209^,1.71 nM
"Cc1ccc(-c2nc(N)nc3c(Nc4cccc(CO[C@@H]5CCOC5)n4)cnn23)o1 [Example 21, (R)-4-(5-Methylfuran-2-yl)-N^8-(6-(((tetrahydrofuran-3-yl)oxy)methyl)pyridin-2-yl)pyrazolo[1,5-a][1,3,5]triazine-2,8-diamine]",609 nM,>10^3,1700 nM,>10^3,0.4 nM
"Cc1ccc(-c2nc(N)nc3c(Nc4cccc(CO[C@H]5CCOC5)c4)cnn23)o1 [Example 25, (S)-4-(5-Methylfuran-2-yl)-N^8-(3-(((tetrahydrofuran-3-yl)oxy)methyl)phenyl)pyrazolo[1,5-a][1,3,5]triazine-2,8-diamine]",2040 nM,>10^3,8150 nM,>10^3,1.64 nM
"Cc1ccc(-c2nc(N)nc3c(Nc4cccc(CO[C@H]5CCOC5)c4F)cnn23)o1 [Example 26, (S)—N^8-(2-fluoro-3-(((tetrahydrofuran-3-yl)oxy)methyl)phenyl)-4-(5-methylfuran-2-yl)pyrazolo[1,5-a][1,3,5]triazine-2,8-diamine]",1210 nM,731^,5300 nM,>10^3,1.66 nM
"Cc1ccc(-c2nc(N)nc3c(Nc4cccc(CN5CCOCC5)n4)cnn23)o1 [Example 27, 4-(5-Methylfuran-2-yl)-N^8-(6-(morpholinomethyl)pyridin-2-yl)pyrazolo[1,5-a][1,3,5]triazine-2,8-diamine]",286 nM,150^,977 nM,514^,1.9 nM

# Now from value to compound:
IC50 [1],IC50 ratio (A1R/A2aR) [1],IC50 [2],IC50 ratio (A3R/A2aR) [2],IC50 [3],Compound
483 nM,294^,3370 nM,>10^3,1.64 nM,"Cc1ccc(-c2nc(N)nc3c(Cc4cccc(CN5CC6COCC6C5)n4)cnn23)o1 (stereo not drawn) [Example 9, 4-(5-Methylfuran-2-yl)-8-((6-((tetrahydro-1H-furo[3,4-c]pyrrol-5(3H)-yl)methyl)pyridin-2-yl)methyl)pyrazolo[1,5-a][1,3,5]triazin-2-amine]"
1230 nM,725^,5500 nM,>10^3,1.7 nM,"COCc1cccc(Cc2cnn3c(-c4ccc(C)o4)nc(N)nc23)n1 [Example 13, 8-((6-(Methoxymethyl)pyridin-2-yl)methyl)-4-(5-methylfuran-2-yl)pyrazolo[1,5-a][1,3,5]triazin-2-amine]"
293 nM,431^,1390 nM,>10^3,0.68 nM,"Cc1ccc(-c2nc(N)nc3c(Cc4cccc(COCCF)n4)cnn23)o1 [Example 14, 8-((6-((2-Fluoroethoxy)methyl)pyridin-2-yl)methyl)-4-(5-methylfuran-2-yl)pyrazolo[1,5-a][1,3,5]triazin-2-amine]"
165 nM,90^,8970 nM,>10^3,1.83 nM,"Cc1ccc(-c2nc(N)nc3c(Cc4cccc(CO[C@H]5CCN(C)C5)n4)cnn23)o1 [Example 15, (S)-4-(5-Methylfuran-2-yl)-8-((6-(((1-methylpyrrolidin-3-yl)oxy)methyl)pyridin-2-yl)methyl) pyrazolo[1,5-a][1,3,5]triazin-2-amine]"
303 nM,532^,1050 nM,>10^3,0.57 nM,"Cc1ccc(-c2nc(N)nc3c(Cc4cccc(COC5CCCC5)n4)cnn23)o1 [Example 22, 8-((6-((Cyclopentyloxy)methyl)pyridin-2-yl)methyl)-4-(5-methylfuran-2-yl)pyrazolo[1,5-a][1,3,5]triazin-2-amine]"
2020 nM,>10^3,2040 nM,>10^3,1.2 nM,"Cc1ccc(-c2nc(N)nc3c(Cc4cccc(CO[C@H]5CCOC5)c4)cnn23)o1 [Example 24, (S)-4-(5-Methylfuran-2-yl)-8-(3-(((tetrahydrofuran-3-yl)oxy)methyl)benzyl)pyrazolo[1,5-a][1,3,5]triazin-2-amine]"
595 nM,279^,1150 nM,540^,2.13 nM,"Cc1ccc(-c2nc(N)nc3c(Sc4cccc(CO[C@H]5CCOC5)n4)cnn23)o1 [Example 28, (S)-4-(5-Methylfuran-2-yl)-8-((6-(((tetrahydrofuran-3-yl)oxy)methyl)pyridin-2-yl)thio)pyrazolo[1,5-a][1,3,5]triazin-2-amine]"
